Test results from US7745636B2, “Hepatitis C virus inhibitors” (Bristol-Myers Squibb Company, priority 2006, dated 2010).
pEC50: −log10 of the molar value.

Test system: HCV 1b-377-neo replicon cells
Assay: HCV Replicon assay, HCV 1b-377-neo replicon cells
Format: cell-based, HCV 1b genotype
Settings: Hepatitis C virus, Table 2, read-out: Range (EC50 against HCV 1b)
Procedure: An HCV Replicon assay was utilized in the present disclosure, and was prepared, conducted and validated as described in commonly owned PCT/US2006/022197 and in O'Boyle et. al. Antimicrob Agents Chemother. 2005 April; 49(4):1346-53.
HCV 1b-377-neo replicon cells were used to test the currently described compound series as well as cells resistant to compound A due to a Y2065H mutation in NS5A (described in application PCT/US2006/022197). The compounds tested were determined to have more than 10-fold less inhibitory activity on cells resistant to compound A than wild-type cells indicating a related mechanism of action between the two compound series. Thus, the compounds of the present disclosure can be effective to inhibit the function of the HCV NS5A protein and are understood to be as effective in combinations as previously described in application PCT/US2006/022197 and commonly owned WO/O4014852. Further, the compounds of the present disclosure can be effective against the HCV 1b genotype. It should also be understood that the compounds of the present disclosure can inhibit multiple genotypes of HCV. […] In one embodiment compounds of the present disclosure are active against the 1a, 1b, 2a, 2b, 3a, 4a, and 5a genotypes.

`COC(=O)N[C@@H](C(=O)N1CCC[C@H]1c1nc(-c2cnc(-c3ccc(-c4cnc([C@@H]5CCCN5C(=O)[C@H](NC(=O)OC)c5ccccc5)[nH]4)c(F)c3)nc2)c[nH]1)c1ccccc1` [Example D69, methyl ((1R)-2-((2S)-2-(5-(2-(3-fluoro-4-(2-((2S)-1-((2R)-2-((methoxycarbonyl)amino)-2-phenylacetyl)-2-pyrrolidinyl)-1H-imidazol-5-yl)phenyl)-5-pyrimidinyl)-1H-imidazol-2-yl)-1-pyrrolidinyl)-2-oxo-1-phenylethyl) carbamate] and `COC(=O)N[C@@H](C(=O)N1CCC[C@H]1c1ncc(-c2ccc(-c3ncc(-c4cnc([C@@H]5CCCN5C(=O)[C@H](NC(=O)OC)c5ccccc5)[nH]4)cn3)cc2)[nH]1)c1ccccc1` [Example 152j-2, methyl ((1R)-2-((2S)-2-(5-(2-(4-(2-((2S)-1-((2R)-2-((methoxycarbonyl)amino)-2-phenylacetyl)-2-pyrrolidinyl)-1H-imidazol-5-yl)phenyl)-5-pyrimidinyl)-1H-imidazol-2-yl)-1-pyrrolidinyl)-2-oxo-1-phenylethyl)carbamate] fall in the same range of pEC50: 9.00 to 12.00 for the first, 9.00 to 12.00 for the second.

`COC(=O)N[C@H](C(=O)N[C@H](c1nc(-c2ccc(-c3ccc(-c4c[nH]c(C5CCCN5C(=O)[C@@H](NC(=O)OC)[C@@H](C)OC)n4)cc3)cc2)c[nH]1)C(C)C)[C@@H](C)OC` (stereo partly drawn) [Example R37] and `COC(=O)N[C@H](C(=O)N1CCC[C@H]1c1nc(-c2cnc(-c3ccc(-c4cnc([C@@H]5CCCN5C(=O)[C@@H](NC(=O)OC)[C@@H](C)OC)[nH]4)c(F)c3)nc2)c[nH]1)[C@@H](C)OC` [Example D70, methyl ((1S,2R)-1-(((2S)-2-(5-(2-fluoro-4-(5-(2-((2S)-1-(N-(methoxycarbonyl)-O-methyl-L-threonyl)-2-pyrrolidinyl)-1H-imidazol-5-yl)-2-pyrimidinyl)phenyl)-1H-imidazol-2-yl)-1-pyrrolidinyl)carbonyl)-2-methoxypropyl) carbamate] fall in the same range of pEC50: 9.00 to 12.00 for the first, 9.00 to 12.00 for the second.

First: Cc1cc(-c2cnc([C@@H]3CCCN3C(=O)[C@@H](c3ccccc3)N(C)C)[nH]2)ccc1-c1ccc(-c2cnc([C@@H]3CCCN3C(=O)[C@@H](c3ccccc3)N(C)C)[nH]2)cn1 [Example 136, (1R)-2-((2S)-2-(5-(6-(4-(2-((2S)-1-((2R)-2-(dimethylamino)-2-phenylacetyl)-2-pyrrolidinyl)-1H-imidazol-5-yl)-2-methylphenyl)-3-pyridinyl)-1H-imidazol-2-yl)-1-pyrrolidinyl)-N,N-dimethyl-2-oxo-1-phenylethanamine]
Second: CN(C)[C@@H](C(=O)N1CCC[C@H]1c1ncc(-c2ccc(-c3cnc(-c4cnc([C@@H]5CCCN5C(=O)[C@@H](c5ccccc5)N(C)C)[nH]4)cn3)cc2)[nH]1)c1ccccc1 [Example 152j-7, (1R)-2-((2S)-2-(5-(5-(4-(2-((2S)-1-((2R)-2-(dimethylamino)-2-phenylacetyl)-2-pyrrolidinyl)-1H-imidazol-5-yl)phenyl)-2-pyrazinyl)-1H-imidazol-2-yl)-1-pyrrolidinyl)-N,N-dimethyl-2-oxo-1-phenylethanamine]
The pEC50 of the first is higher: 9.00 to 12.00 for the first, 7.00 to 9.00 for the second. The first is the more potent here.

`COC(=O)N[C@@H](C(=O)N1CCC[C@H]1c1ncc(-c2ccc(-c3ccc(-c4cnc([C@@H]5CCCN5C(=O)[C@H](NC(=O)OC)c5ccccc5)[nH]4)nc3)cc2)[nH]1)c1ccccc1` [Example 147, methyl((1R)-2-((2S)-2-(5-(5-(4-(2-((2S)-1-((2R)-2-((methoxycarbonyl)amino)-2-phenylacetyl)-2-pyrrolidinyl)-1H-imidazol-5-yl)phenyl)-2-pyridinyl)-1H-imidazol-2-yl)-1-pyrrolidinyl)-2-oxo-1-phenylethyl)carbamate] and `COC(=O)N[C@@H](C(=O)N1CCC[C@H]1c1ncc(-c2ccc(-c3ccc(-c4cnc([C@@H]5CCCN5C(=O)[C@H](NC(=O)OC)c5ccccc5)[nH]4)cc3C)nc2)[nH]1)c1ccccc1` [Example 138, methyl((1R)-2-((2S)-2-(5-(6-(4-(2-((2S)-1-((2R)-2-((methoxycarbonyl)amino)-2-phenylacetyl)-2-pyrrolidinyl)-1H-imidazol-5-yl)-2-methylphenyl)-3-pyridinyl)-1H-imidazol-2-yl)-1-pyrrolidinyl)-2-oxo-1-phenylethyl)carbamate] fall in the same range of pEC50: 9.00 to 12.00 for the first, 9.00 to 12.00 for the second.

`COC(=O)N[C@@H](C(=O)N1CCC[C@H]1c1ncc(-c2ccc(-c3ncc(-c4cnc([C@@H]5CCCN5C(=O)[C@@H](c5ccccc5)N5CCCCC5)[nH]4)cn3)cc2)[nH]1)c1ccccc1` [Example 152l-3, methyl ((1R)-2-oxo-1-phenyl-2-((2S)-2-(4-(4-(5-(2-((2S)-1-((2R)-2-phenyl-2-(1-piperidinyl)acetyl)-2-pyrrolidinyl)-1H-imidazol-5-yl)-2-pyrimidinyl)phenyl)-1H-imidazol-2-yl)-1-pyrrolidinyl)ethyl) carbamate] and `COC(=O)N[C@@H](C(=O)N1CCC[C@H]1c1ncc(-c2ccc(-c3ccc(-c4cnc([C@@H]5CCCN5C(=O)N5CCOCC5)[nH]4)cn3)cc2)[nH]1)c1ccccc1` [Example 144, methyl((1R)-2-((2S)-2-(5-(4-(5-(2-((2S)-1-(4-morpholinylcarbonyl)-2-pyrrolidinyl)-1H-imidazol-5-yl)-2-pyridinyl)phenyl)-1H-imidazol-2-yl)-1-pyrrolidinyl)-2-oxo-1-phenylethyl)carbamate] fall in the same range of pEC50: 9.00 to 12.00 for the first, 9.00 to 12.00 for the second.

`COC(=O)N[C@@H](C(=O)N[C@@H](C)c1ncc(-c2ccc(-c3ccc(-c4cnc([C@@H]5CCCN5C(=O)[C@H](NC(=O)OC)c5ccccc5)[nH]4)cn3)cc2)[nH]1)c1ccccc1` [Example 152j-12, methyl ((1R)-2-((2S)-2-(5-(6-(4-(2-((1S)-1-(((2R)-2-((methoxycarobnyl)amino)-2-phenylace-tyl)amino)eth-yl)-1H-imidazol-5-yl)phenyl)-3-pyridinyl)-1H-imidazol-2-yl)-1-pyrrolidinyl)-2-oxo-1-phenylethyl)carbamate] and `CC(=O)N[C@@H](C(=O)N1CCC[C@H]1c1ncc(-c2ccc(-c3ccc(-c4cnc([C@@H]5CCCN5C(=O)[C@H](NC(C)=O)c5ccccc5)[nH]4)cn3)cc2)[nH]1)c1ccccc1` [Example 139, N-((1R)-2-((2S)-2-(5-(6-(4-(2-((2S)-1-((2R)-2-acetamido-2-phenylacetyl)-2-pyrrolidinyl)-1H-imidazol-5-yl)phenyl)-3-pyridinyl)-1H-imidazol-2-yl)-1-pyrrolidinyl)-2-oxo-1-phenylethyl)acetamide] fall in the same range of pEC50: 9.00 to 12.00 for the first, 9.00 to 12.00 for the second.

Compared with `C[C@H](NC(=O)[C@@H](c1ccccc1)N(C)C)c1ncc(-c2ccc(-c3ccc(-c4cnc([C@@H]5CCCN5C(=O)[C@@H](c5ccccc5)N(C)C)[nH]4)nn3)cc2)[nH]1` [Example 152j-13, (2R)-2-(dimethylamino)-N-((1S)-1-(5-(4-(6-(2-((2S)-1-((2R)-2-(dimethylamino)-2-phenylacetyl)-2-pyrrolidinyl)-1H-imidazol-5-yl)-3-pyridazinyl)phenyl)-1H-imidazol-2-yl)ethyl)-2-phenylacetamide], `C[C@@H](OCc1ccccc1)[C@H](N)c1ncc(-c2ccc(-c3ccc(-c4cnc([C@@H]5CCCN5)[nH]4)cc3)cc2)[nH]1` [Example R35] is lower in pEC50: 7.00 to 9.00 for the first, 6.00 to 7.00 for the second. The first is the more potent here.

`COC(=O)N[C@H](C(=O)N1CCC[C@H]1c1ncc(-c2cnc(-c3ccc(-c4[nH]c([C@@H]5CCCN5C(=O)[C@@H](NC(=O)OC)C5CC5)nc4C(F)(F)F)cc3)nc2)[nH]1)C1CC1` [Example J49, methyl ((1S)-1-cyclopropyl-2-((2S)-2-(5-(4-(5-(2-((2S)-1-((2S)-2-cyclopropyl-2-((methoxycarbonyl)amino)acetyl)-2-pyrrolidinyl)-1H-imidazol-5-yl)-2-pyrimidinyl)phenyl)-4-(trifluoromethyl)-1H-imidazol-2-yl)-1-pyrrolidinyl)-2-oxoethyl)carbamate] and `COC(=O)N[C@@H](C)C(=O)N1CCC[C@H]1c1nc(-c2cnc(-c3ccc(-c4cnc([C@@H]5CCCN5C(=O)[C@H](C)NC(=O)OC)[nH]4)cc3)nc2)c[nH]1` [Example D73, methyl ((1S)-2-((2S)-2-(5-(4-(5-(2-((2S)-1-(N-(methoxycarbonyl)-L-alanyl)-2-pyrrolidinyl)-1H-imidazol-5-yl)-2-pyrimi-dinyl)phenyl)-1H-imidazol-2-yl)-1-pyrrolidinyl)-1-methyl-2-oxoethyl)carbamate] fall in the same range of pEC50: 9.00 to 12.00 for the first, 9.00 to 12.00 for the second.

Same assay, conditions: Table 2, listed as 151 isomer 1, read-out: Range (EC50 against HCV 1b)

For `CN(C)[C@@H](C(=O)N1CCC[C@H]1c1nc(-c2ccc(-c3ccc(-c4cn(C)c([C@@H]5CCCN5C(=O)[C@@H](c5ccccc5)N(C)C)n4)cc3)cc2)cn1C)c1ccccc1` (single isomer, unassigned) [Example 151 isomer 1], the pEC50 was 7.00 to 9.00.

Same assay, conditions: Table 2, read-out: Range (EC50 against HCV 1b)

`CC(C)[C@H](NC(=O)OCCF)C(=O)O` [OL-4] and `COC(=O)N[C@H](C(=O)N1CCC[C@H]1c1ncc(-c2ccc(-c3ccc(-c4cnc([C@@H]5CCCN5C(=O)CNC(C)C)[nH]4)cc3)cc2)[nH]1)C(C)C` [LS25] fall in the same range of pEC50: 9.00 to 12.00 for the first, 9.00 to 12.00 for the second.

`CC(C)[C@H](NC(=O)OC(C)(C)C)c1ncc(-c2ccc(-c3ccc(-c4cnc([C@@H](NC(=O)OC(C)(C)C)C(C)C)[nH]4)cc3)cc2)[nH]1` [Example 3] and `COC(=O)NC(C(=O)NC(C)c1ncc(-c2ccc(-c3ccc(-c4cnc(C5CCCN5C(=O)C(NC(=O)OC)C(C)OC)[nH]4)cc3)cc2)[nH]1)C(C)OC` (stereo not drawn) [Example R27] fall in the same range of pEC50: 9.00 to 12.00 for the first, 9.00 to 12.00 for the second.
